{
  "source": "paper PMC2966298",
  "about": "(Journal of medicinal chemistry, 2010)",
  "key": {"15-hLO-1 [1]": {"molecular_target": "T1, 15-hLO-1 (Homo sapiens, UniProt P16050)", "T1 sequence (P16050 1-662)": "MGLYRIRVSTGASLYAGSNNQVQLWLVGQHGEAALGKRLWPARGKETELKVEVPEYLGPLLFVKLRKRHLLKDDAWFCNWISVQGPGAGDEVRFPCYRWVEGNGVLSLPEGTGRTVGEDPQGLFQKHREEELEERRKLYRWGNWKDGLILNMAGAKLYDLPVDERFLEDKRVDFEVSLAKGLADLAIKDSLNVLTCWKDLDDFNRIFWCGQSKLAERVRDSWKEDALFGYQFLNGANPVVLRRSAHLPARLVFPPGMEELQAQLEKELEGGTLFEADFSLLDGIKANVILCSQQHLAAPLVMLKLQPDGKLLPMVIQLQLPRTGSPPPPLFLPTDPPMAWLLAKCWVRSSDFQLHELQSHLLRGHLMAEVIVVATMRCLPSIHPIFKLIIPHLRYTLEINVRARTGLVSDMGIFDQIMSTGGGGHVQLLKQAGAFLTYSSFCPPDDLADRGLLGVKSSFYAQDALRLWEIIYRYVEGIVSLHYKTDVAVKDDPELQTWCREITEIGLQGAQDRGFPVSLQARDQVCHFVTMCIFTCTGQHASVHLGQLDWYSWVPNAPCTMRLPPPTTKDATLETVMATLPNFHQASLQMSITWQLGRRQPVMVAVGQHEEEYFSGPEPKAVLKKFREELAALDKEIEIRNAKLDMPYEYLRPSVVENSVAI", "conditions": "cited from earlier work"}, "[2]": {"assay": "Solubility as noted during biochemical characterization", "assay_type": "physicochemical", "conditions": "noted where Ki^app could not be obtained accurately"}, "[3]": {"molecular_target": "T2, Human reticulocyte 15-lipoxygenase-1 (15-hLO-1) (Homo sapiens, UniProt P16050)", "T2 sequence (P16050 1-662)": "T1 sequence (P16050 1-662)", "assay": "Lipoxygenase UV-Vis assay", "conditions": "for fold loss in activity against 15-hLO-1 relative to lead 5: compared with compound 5 (19 nM)"}, "15-hLO-1 [4]": {"molecular_target": "T1, 15-hLO-1", "assay": "Reversibility of inhibition", "assay_type": "biochemical", "conditions": "50 μM inhibitor, 10 min incubation, then 2 h dialysis"}, "15-hLO-1 [5]": {"molecular_target": "T1, 15-hLO-1", "assay": "Steady-state inhibition kinetics", "conditions": "replot of 1/Vmax vs inhibitor; AA substrate, 0.01% Triton X-100"}},
  "note": "“Also recorded” adds a separate entry of the source.",
  "data": [
    {"smiles": "COc1ccc(-c2oc3cc(OC)c(OC)c(OC)c3c(=O)c2OC)cc1OC", "note": "[hexamethoxyflavone]", "values": [
      {"measurement": "IC50", "setting": "15-hLO-1 [1]", "value": 50, "unit": "µM"}
    ]},
    {"smiles": "O=C(CCC#CCSc1nnc(-c2cccc3ccccc23)o1)c1ccccc1", "note": "[Analogue 67]", "values": [
      {"measurement": "solubility (in words)", "setting": "[2]", "value": "reduced solubility; also recorded: low solubility"}
    ]},
    {"smiles": "O=C(NCC#CCSc1nnc(-c2cccc3ccccc23)o1)c1cccs1", "note": "[Analogue 56]", "values": [
      {"measurement": "IC50", "setting": "[3]", "value": 2, "unit": "µM"},
      {"measurement": "fold loss in activity against 15-hLO-1 relative to lead 5", "setting": "[3]", "value": 100, "unit": "fold"}
    ]},
    {"smiles": "O=C(OCC#CCSc1nnc(-c2cccc3ccccc23)o1)c1ccccc1F", "note": "[Analogue 25]", "values": [
      {"measurement": "reversibility of inhibition", "setting": "15-hLO-1 [4]", "value": "reversible"}
    ]},
    {"smiles": "O=C(OCC#CCSc1nnc(-c2cccc3ccccc23)s1)c1cccs1", "note": "[Analogue 58]", "values": [
      {"measurement": "solubility (in words)", "setting": "[2]", "value": "noticeably less soluble; also recorded: low solubility"}
    ]},
    {"smiles": "O=C(OCC#CCSc1nnc(-c2cccc3ccccc23)o1)c1c[nH]cn1", "note": "[Analogue 16]", "values": [
      {"measurement": "fold loss in activity against 15-hLO-1 relative to lead 5", "setting": "[3]", "value": "approximately 70 fold"},
      {"measurement": "Ki’ (dissociation from the secondary site)", "setting": "15-hLO-1 [5]", "value": "8.1 ± 0.9", "unit": "µM"}
    ]},
    {"smiles": "O=C(OCC#CCSc1nnc(-c2cc3ccccc3cc2O)o1)c1ccc(F)cc1", "note": "[Analogue 53]", "values": [
      {"measurement": "solubility (in words)", "setting": "[2]", "value": "low solubility"}
    ]},
    {"smiles": "Fc1ccc(COCC#CCSc2nnc(-c3cccc4ccccc34)o2)cc1", "note": "[Analogue 66]", "values": [
      {"measurement": "activity against 15-hLO-1 (in words)", "setting": "[3]", "value": "complete loss in activity"}
    ]},
    {"smiles": "O=C(OCc1ccc(CSc2nnc(-c3cccc4ccccc34)o2)cc1)c1ccc(F)cc1", "note": "[Analogue 62]", "values": [
      {"measurement": "IC50", "setting": "[3]", "value": "> 100", "unit": "µM"}
    ]},
    {"smiles": "O=C(OCC#CCSc1nnc(-c2ccc(F)cc2)o1)c1ccc(F)cc1", "note": "[Analogue 47]", "values": [
      {"measurement": "IC50", "setting": "[3]", "value": "< 0.01", "unit": "µM"}
    ]},
    {"smiles": "O=C(OCC#CCNc1nnc(-c2cccc3ccccc23)o1)c1cccs1", "note": "[Analogue 60]", "values": [
      {"measurement": "IC50", "setting": "[3]", "value": 1.3, "unit": "µM"}
    ]}
  ]
}
